Test results: paper PMC8253220, “Molecular design, synthesis and in vitro biological evaluation of thienopyrimidine–hydroxamic acids as chimeric kinase HDAC inhibitors: a challenging approach to combat cancer” (Journal of Enzyme Inhibition and Medicinal Chemistry, 2021)
Several values for one entry are separate records, joined by “and”; a condition that tells them apart may be missing. Equal entries are not always repeated.

Experiments:
UACC-257 = assay: NCI one-dose screen; assay type: cell-based, human; conditions: Melanoma UACC-257, 10 µM single dose
Procedure: (§1) All of the synthesised structures were selected and submitted to NCI based on computer modelling techniques and the degree of diversity of structures for the evaluation of their antiproliferative activity. The 20 synthesised compounds were selected with their respective NCI codes [NCS D-820157- NCS D-820176] for the inhibition percent assay at an initial single dose of 10 μM on the full NCI 60 cell panel, where the mean graph of the percent growth for all compounds on the full NCI cell panel is evaluated, compared to the untreated control cells (Supplementary Material). In vitro cell line inhibition % of all synthesised compounds is represented in (Table 1 of Supplementary Material).
(§2) All of the synthesised compounds (20) were submitted to NCI and selected for in vitro anticancer assay against a panel of 60 cancer cell lines. The methodology of assay and calculations is as reported.

RXF 393 = assay: NCI one-dose screen; assay type: cell-based, human; conditions: Renal RXF 393, 10 µM single dose
Procedure: as §1, §2

K-562 = assay: NCI one-dose screen; assay type: cell-based, human; conditions: Leukemia K-562, 10 µM single dose
Procedure: as §1, §2

MCF7 = assay: NCI one-dose screen; assay type: cell-based, human; conditions: for Growth Percent: Breast MCF7, 10 µM single dose
Procedure: as §1, §2

T-47D = assay: NCI one-dose screen; assay type: cell-based, human; conditions: Breast T-47D, 10 µM single dose
Procedure: as §1, §2

OVCAR-5 = assay: NCI one-dose screen; assay type: cell-based, human; conditions: Ovarian OVCAR-5, 10 µM single dose
Procedure: as §1, §2

ACHN = assay: NCI one-dose screen; assay type: cell-based, human; conditions: Renal ACHN, 10 µM single dose
Procedure: as §1, §2

EKVX = assay: NCI one-dose screen; assay type: cell-based, human; conditions: NSCLC EKVX, 10 µM single dose
Procedure: as §1, §2

NCI-H460 = assay: NCI one-dose screen; assay type: cell-based, human; conditions: NSCLC NCI-H460, 10 µM single dose
Procedure: as §1, §2

SK-OV-3 = assay: NCI one-dose screen; assay type: cell-based, human; conditions: Ovarian SK-OV-3, 10 µM single dose
Procedure: as §1, §2

MDA-MB-231/ATCC = assay: NCI one-dose screen; assay type: cell-based, human; conditions: Breast MDA-MB-231/ATCC, 10 µM single dose
Procedure: as §1, §2

SN12C = assay: NCI one-dose screen; assay type: cell-based, human; conditions: Renal SN12C, 10 µM single dose
Procedure: as §1, §2

SW-620 = assay: NCI one-dose screen; assay type: cell-based, human; conditions: Colon SW-620, 10 µM single dose
Procedure: as §1, §2

MDA-MB-468 = assay: NCI one-dose screen; assay type: cell-based, human; conditions: Breast MDA-MB-468, 10 µM single dose
Procedure: as §1, §2

MALME-3M = assay: NCI one-dose screen; assay type: cell-based, human; conditions: Melanoma MALME-3M, 10 µM single dose
Procedure: as §1, §2

HOP-62 = assay: NCI one-dose screen; assay type: cell-based, human; conditions: NSCLC HOP-62, 10 µM single dose
Procedure: as §1, §2

IGROV1 = assay: NCI one-dose screen; assay type: cell-based, human; conditions: Ovarian IGROV1, 10 µM single dose
Procedure: as §1, §2

SK-MEL-5 = assay: NCI one-dose screen; assay type: cell-based, human; conditions: Melanoma SK-MEL-5, 10 µM single dose
Procedure: as §1, §2

PC-3 = assay: NCI one-dose screen; assay type: cell-based, human; conditions: Prostate PC-3, 10 µM single dose
Procedure: as §1, §2

LOX IMVI = assay: NCI one-dose screen; assay type: cell-based, human; conditions: Melanoma LOX IMVI, 10 µM single dose
Procedure: as §1, §2

NCI-H226 = assay: NCI one-dose screen; assay type: cell-based, human; conditions: NSCLC NCI-H226, 10 µM single dose
Procedure: as §1, §2

COLO 205 = assay: NCI one-dose screen; assay type: cell-based, human; conditions: Colon COLO 205, 10 µM single dose
Procedure: as §1, §2

HCC-2998 = assay: NCI one-dose screen; assay type: cell-based, human; conditions: Colon HCC-2998, 10 µM single dose
Procedure: as §1, §2

EGFR = EGFR (Homo sapiens, UniProt P00533); assay: In vitro EGFR tyrosine kinase inhibitory assay (Z'-LYTE, SelectScreen); assay type: biochemical; conditions: for inhibition at 10 µM: 10 µM single dose
Sequence of EGFR (P00533 25-1210): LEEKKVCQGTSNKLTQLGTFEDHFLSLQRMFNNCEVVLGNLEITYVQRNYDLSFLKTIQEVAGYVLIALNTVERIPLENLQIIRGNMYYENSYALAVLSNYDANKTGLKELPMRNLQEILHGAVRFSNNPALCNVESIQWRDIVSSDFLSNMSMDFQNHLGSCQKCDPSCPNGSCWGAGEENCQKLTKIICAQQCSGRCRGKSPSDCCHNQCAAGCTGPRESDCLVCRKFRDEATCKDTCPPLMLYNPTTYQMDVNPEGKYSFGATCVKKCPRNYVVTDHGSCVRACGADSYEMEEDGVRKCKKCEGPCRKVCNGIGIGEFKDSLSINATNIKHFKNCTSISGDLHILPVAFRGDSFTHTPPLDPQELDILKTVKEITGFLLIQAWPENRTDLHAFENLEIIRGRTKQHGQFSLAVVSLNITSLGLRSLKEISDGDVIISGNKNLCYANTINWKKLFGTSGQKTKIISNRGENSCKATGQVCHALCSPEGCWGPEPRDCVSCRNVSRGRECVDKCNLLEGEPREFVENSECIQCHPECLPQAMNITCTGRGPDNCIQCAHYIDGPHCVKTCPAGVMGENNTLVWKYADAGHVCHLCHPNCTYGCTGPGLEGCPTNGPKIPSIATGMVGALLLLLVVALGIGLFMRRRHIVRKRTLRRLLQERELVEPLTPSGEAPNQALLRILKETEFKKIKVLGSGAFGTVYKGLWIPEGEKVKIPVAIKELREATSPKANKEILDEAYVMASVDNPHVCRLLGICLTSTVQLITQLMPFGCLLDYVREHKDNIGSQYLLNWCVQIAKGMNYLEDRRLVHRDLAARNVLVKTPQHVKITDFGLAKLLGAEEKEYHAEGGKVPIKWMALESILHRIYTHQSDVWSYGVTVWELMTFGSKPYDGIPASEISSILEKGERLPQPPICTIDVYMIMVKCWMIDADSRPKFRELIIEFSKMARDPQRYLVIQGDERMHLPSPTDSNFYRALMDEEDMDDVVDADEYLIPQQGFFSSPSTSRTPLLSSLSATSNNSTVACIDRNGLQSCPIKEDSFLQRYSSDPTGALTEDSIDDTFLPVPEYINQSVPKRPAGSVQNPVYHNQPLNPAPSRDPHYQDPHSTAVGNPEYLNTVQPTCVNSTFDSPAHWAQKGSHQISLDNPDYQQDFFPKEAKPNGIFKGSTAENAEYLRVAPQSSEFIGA
Procedure: The target compounds were evaluated for their in vitro inhibitory activities against EGFR, VEGFR-2, and HDAC6. The EGFR and VEGFR-2 inhibitory assays were performed at Thermo Fischer Scientific, Madison, WI, USA (SelectScreenServices@thermofisher.com). The HDAC inhibitory assays were performed at BPS Bioscience, San Diego, CA, USA (www.bpsbioscience.com). Initially, all of the synthesised target compounds were evaluated for their percent inhibitory activity against EGFR, VEGFR-2, and HDACs at 10 µM single dose concentration, in which their mean percent inhibition is summarised in (Figure 5, Tables 1 and [2]). Representative compounds were evaluated for their percent inhibitory activity against EGFR and VEGFR-2 at 6 different concentrations (0.1 nM, 1 nM, 10 nM, 100 nM, 1 µM, 10 µM) to subsequently calculate their IC50 values (Table 3). Additionally, all of the synthesised target compounds were submitted to the National Cancer Institute “NCI” Bethesda, Maryland, USA (www.dtp.nci.nih.gov), to evaluate theirs in vitro antiproliferative activities against NCI 60- cancer cell line panel.
In vitro enzyme inhibition determination for the synthesised compounds was carried out in Thermo Fischer Scientific, Madison, WI, USA (SelectScreenServices@thermofisher.com). The EGFR and VEGFR-2 tyrosine kinase % inhibitory activity at a single-dose concentration of 10 µM was performed initially then representative compounds were evaluated at single-dose concentrations of (0.1 nM, 1 nM, 10 nM, 100 nM, 1 µM) using ZYLTE technology. A fluorescence-based, coupled-enzyme format is employed in the biochemical assay and depends on the sensitivity of proteolytic cleavage to non-phosphorylated and phosphorylated peptides. Then IC50 values for selected compounds were determined by GraphPad Prism at Misr international university.

full NCI 60 cell panel = assay: NCI one-dose screen, whole panel statistics; assay type: cell-based, human; conditions: 1.00E-5 Molar; for Mean Growth Percent: mean over panel
Procedure: as §1, §2

Compound: Cc1c(C(=O)NO)sc2ncnc(Nc3ccc(NC(=O)Nc4cccc(C(F)(F)F)c4)cc3)c12 [Compound 7c, 1–(4-(6-(hydroxycarbamoyl)-5-methylthieno[2,3-d]pyrimidin-4-ylamino)phenyl)-3–(3-(trifluoromethyl)phenyl)urea]
- Growth Percent (UACC-257): 106.3% and 106.33%
- Growth Percent (RXF 393): 106.61%
- Growth Percent (K-562): 91.7% and 91.72%
- Growth Percent (MCF7): 88.4% and 88.42%
- inhibition at 10 µM (MCF7; Homo sapiens, breast MCF7, 10 μM): 11.6%
- Growth Percent (T-47D): 96.3% and 96.39%
- Growth Percent (OVCAR-5): 114.3% and 114.33%
- Growth Percent (ACHN): 94.84%
- Growth Percent (EKVX): 95.7% and 95.77%
- Growth Percent (NCI-H460): 101.7% and 101.73%
- Growth Percent (SK-OV-3): 113.0% and 113.07%
- Growth Percent (MDA-MB-231/ATCC): 95.2% and 95.26%
- Growth Percent (SN12C): 97.89%
- Growth Percent (SW-620): 108.7% and 108.79%
- Growth Percent (MDA-MB-468): 109.16%
- Growth Percent (MALME-3M): 105.0% and 105.06%
- Growth Percent (HOP-62): 93.7% and 93.71%
- Growth Percent (IGROV1): 97.6% and 97.68%
- Growth Percent (SK-MEL-5): 99.6% and 99.67%
- Growth Percent (PC-3): 91.1% and 91.19%
- Growth Percent (LOX IMVI): 90.9% and 90.99%
- Growth Percent (NCI-H226): 99.2% and 99.29%
- Growth Percent (COLO 205): 103.3% and 103.35%
- Growth Percent (HCC-2998): 112.6% and 112.66%
- inhibition at 10 µM (EGFR): 11%
- melting point: 285 °C
- Delta (one dose mean graph) (full NCI 60 cell panel): 43.18%
- Range (one dose mean graph) (full NCI 60 cell panel): 65.35%
- Mean Growth Percent (full NCI 60 cell panel): 97.22%

Compound: Cc1c(C(=O)NCCCC(=O)NO)sc2ncnc(Nc3ccc(NC(=O)Nc4cccc(C(F)(F)F)c4)cc3)c12 [Compound 12c, 1–(4-(6-((4-(hydroxyamino)-4-oxobutyl)carbamoyl)-5-methylthieno[2,3-d]pyrimidin-4-ylamino)phenyl)-3–(3-(trifluoromethyl)phenyl)urea]
- Growth Percent (UACC-257): 107.0%
- Growth Percent (RXF 393): 108.5% and 108.58%
- Growth Percent (K-562): 103.8% and 103.86%
- Growth Percent (MCF7): 95.2% and 95.26%
- Growth Percent (T-47D): 109.7% and 109.79%
- Growth Percent (OVCAR-5): 111.3% and 111.33%
- Growth Percent (ACHN): 105.9% and 105.92%
- Growth Percent (EKVX): 100.0% and 100.09%
- Growth Percent (NCI-H460): 101.9% and 101.92%
- Growth Percent (SK-OV-3): 113.9% and 113.94%
- Growth Percent (MDA-MB-231/ATCC): 99.1% and 99.12%
- Growth Percent (SN12C): 104.6% and 104.65%
- Growth Percent (SW-620): 109.4% and 109.44%
- Growth Percent (MDA-MB-468): 105.6% and 105.66%
- Growth Percent (MALME-3M): 116.7% and 116.65%
- Growth Percent (HOP-62): 103.3%
- Growth Percent (IGROV1): 116.7% and 116.77%
- Growth Percent (SK-MEL-5): 100.9% and 100.91%
- Growth Percent (PC-3): 111.1% and 111.12%
- Growth Percent (LOX IMVI): 98.1% and 98.14%
- Growth Percent (NCI-H226): 105.6% and 105.63%
- Growth Percent (COLO 205): 114.9% and 114.97%
- Growth Percent (HCC-2998): 113.6% and 113.65%
- inhibition at 0.0001 µM (EGFR; 0.1 nM compound, 10 μM ATP, read-out: % Inhibition mean, EGFR (ErbB1)): 6%
- inhibition at 0.001 µM (EGFR; 1 nM compound, 10 μM ATP, read-out: % Inhibition mean, EGFR (ErbB1)): 4%
- inhibition at 0.01 µM (EGFR; 10 nM compound, 10 μM ATP, read-out: % Inhibition mean, EGFR (ErbB1)): 4%
- inhibition at 0.1 µM (EGFR; 100 nM compound, 10 μM ATP, read-out: % Inhibition mean, EGFR (ErbB1)): 7%
- inhibition at 1 µM (EGFR; 1000 nM compound, 10 μM ATP, read-out: % Inhibition mean, EGFR (ErbB1)): 34%
- inhibition at 10 µM (EGFR): 66%
- IC50 (EGFR; read-out: IC50 in enzyme assays EGFR): 1.14 µM
- melting point: 215 to 217 °C
- Delta (one dose mean graph) (full NCI 60 cell panel): 33.40%
- Range (one dose mean graph) (full NCI 60 cell panel): 59.27%
- Mean Growth Percent (full NCI 60 cell panel): 104.16%

Compound: Cc1c(C(=O)NCCC(=O)NO)sc2ncnc(Nc3ccc(NC(=O)Nc4cccc(C(F)(F)F)c4)cc3)c12 [Compound 11c, 1–(4-(6-((3-(hydroxyamino)-3-oxopropyl)carbamoyl)-5-methylthieno[2,3-d]pyrimidin-4-ylamino)phenyl)-3–(3-(trifluoromethyl)phenyl)urea]
- Growth Percent (UACC-257): 108.3% and 108.33%
- Growth Percent (RXF 393): 103.8% and 103.88%
- Growth Percent (K-562): 103.6% and 103.67%
- Growth Percent (MCF7): 89.2% and 89.23%
- Growth Percent (T-47D): 101.4% and 101.45%
- Growth Percent (OVCAR-5): 104.4% and 104.48%
- Growth Percent (ACHN): 101.7% and 101.74%
- Growth Percent (EKVX): 90.7% and 90.76%
- Growth Percent (NCI-H460): 99.4% and 99.41%
- Growth Percent (SK-OV-3): 115.3% and 115.32%
- Growth Percent (MDA-MB-231/ATCC): 105.2% and 105.25%
- Growth Percent (SN12C): 100.0% and 100.06%
- Growth Percent (SW-620): 104.3% and 104.35%
- Growth Percent (MDA-MB-468): 97.1% and 97.16%
- Growth Percent (MALME-3M): 112.1% and 112.11%
- Growth Percent (HOP-62): 101.7%
- Growth Percent (IGROV1): 102.2% and 102.29%
- Growth Percent (SK-MEL-5): 97.1% and 97.12%
- Growth Percent (PC-3): 100.2% and 100.24%
- Growth Percent (LOX IMVI): 94.5% and 94.53%
- Growth Percent (NCI-H226): 97.9%
- Growth Percent (COLO 205): 112.9%
- Growth Percent (HCC-2998): 111.5% and 111.56%
- inhibition at 10 µM (EGFR): 11%
- melting point: 281 °C
- Delta (one dose mean graph) (full NCI 60 cell panel): 23.75%
- Range (one dose mean graph) (full NCI 60 cell panel): 61.62%
- Mean Growth Percent (full NCI 60 cell panel): 102.55%
